For data set [1], the target named is T1, NMDA receptor glycine site (Rattus norvegicus, UniProt P35439).
T1 construct: The rat brain membranes used in the experiments were obtained from Analytical Biological Services Inc; tissue Analytical Biological Services Inc; host or cells: rat brain membranes (cerebral cortex and hippocampus, Sprague Dawley)
Briefly: Test A: Inhibition of binding of [3H]-MDL105,519 to brain membranes. To be noted: inhibition of 1.2 nM [3H]MDL105,519 binding to brain membranes; rat or human membranes not specified. On the procedure: Test A: Inhibition of Binding of [^3H]-MDL105,519:
Binding of compounds to the NMDA receptor glycine site may be assessed by measuring the ability of test compounds to inhibit the binding of tritiated MDL105,519 to brain membranes bearing the receptor.
Rat Brain Membranes: The rat brain membranes used in the experiments were obtained from Analytical Biological Services Inc., and were prepared substantially in accordance with the method of B. M. Baron et al., J. Pharmacol. Exp. Ther. 250, 162 (1989). Briefly, fresh brain tissue including cerebral cortex and hippocampus from […] Sprague Dawley rats was homogenized in 0.32 M sucrose and centrifuged at low speed to separate cellular membranes from other cellular components. The membranes were then washed 3 times using deionized water, followed by treatment with 0.04% Triton X-100. Finally, membranes were washed six times in 50 mM Tris citrate buffer, pH 7.4, and frozen at −80° C. until use.
[^3H]MDL105,519 (72 Ci/mmol) was purchased from Amersham. Cold MDL105,519 was purchased from Sigma/RBI. Binding assays were performed substantially in accordance with the protocol of B. M. Baron et al., J. Pharmacol. Exp. Ther. 279, 62 (1996), as follows. On the day of the experiment, brain membranes were thawed at room temperature and suspended in 50 mM tris acetate buffer, pH 7.4 (“TAB”). Seventy-five micro grams per milliliter protein (by using the BioRad dye) were used for competition binding. The experiments were carried out using 96-well plates. Membranes were incubated with 20 μL of compounds of various concentrations and 1.2 nM [^3H]MDL105,519 for 30 minutes at room temperature in a total volume of 250 μL. Non specific binding was determined by using 100 μM of unlabeled MDL105,519. The unlabeled MDL105,519 and compounds were dissolved as 12.5 mM stock solutions in DMSO. Final DMSO concentration in each well was kept below 1%, which concentration was found not to alter the binding results. After incubation, unbound [^3H]MDL105,519 was removed by filtration onto GF/B Unifilter plates using a Packard harvester. Filters were washed four times with ice cold TAB (total of 1.2 mL buffer). The plates were dried overnight at room temperature and bound radioactivity was measured on a Packard TopCount after the addition of 45 μL per well of the MICROSCINT O.
Human Brain Membranes: Human brain membranes were obtained from Analytical Biological Services Inc., and assays were performed as described for rat membranes.
Data analysis: Data was analyzed using a Microsoft Excel spreadsheet and GraphPad Prizm software and potency of compounds is expressed as the Ki (nM).

Data set [2] deals with CCI rats (thermal hyperalgesia). To be noted: oral, three times daily for 5 days.
Text: The anti-hyperalgesic properties of a compound may be tested with the Chronic Constriction Injury (“CCI”) model.
Procedurally, Sprague-Dawley rats (250-350 g) are anesthetized with sodium pentobarbital and the common sciatic nerve is exposed at the level of the mid thigh by blunt dissection through the biceps femoris. A section of nerve (about 7 mm), proximal to the sciatic trifucation, is freed of tissue and ligated at four positions with chromic gut suture. The suture is tied with about 1 mm spacing between ligatures. The incision is closed in layers and the animals are allowed to recuperate. […] To perform the test, animals are habituated on an elevated glass floor. A radiant heat source is aimed at the mid-plantar hindpaw (sciatic nerve territory) through the glass floor with a 20 second cut-off used to prevent injury to the skin. The latencies for the withdrawal reflex in both hind paws are recorded.
Responses to test compounds are evaluated at different times after oral administration to determine the onset and duration of compound effect. When performing the test, groups of CCI rats receive either vehicle or the test compound orally three times daily for 5 days. […] Compound efficacy is expressed as mean percentage decrease of hyperalgesia compared to that of vehicle-treated animals, calculated as follows: [formula]

Bounds are passed on as bounds.

A word on the Ki: it is a measure of affinity in units of concentration, obtained from inhibition or displacement. A low value points to higher affinity. As a reminder, the melting point is the temperature, or range, at which the solid turns liquid. As to `O=c1c2ccc(Cl)cc2[nH]c2c(O)nn(C3CCOc4ccccc43)c(=O)c12` (racemic) [Ex. 2, (+/−)-7-Chloro-4-hydroxy-2-(chroman-4-yl)-1,2,5,10-tetrahydropyridazino[4.5-b]quinoline-1.10-dione], the melting point is over 300 °C. In addition, the Ki in data set [1] turned out to be 557 nM.
Regarding `O=c1c2ccc(Cl)cc2[nH]c2c(O)nn(C3CCCc4ccccc43)c(=O)c12` (racemic) [Ex. 4, (+/−)-7-Chloro-4-hydroxy-2-(1,2,3,4-tetrahydronaphth-1-yl)-1.2,5,10-tetrahydropyridazino[4,5-b]quinoline-1,10-dione], the melting point is over 300 °C. Moreover, the Ki in data set [1] worked out at 725 nM.
Molecule `O=c1c2ccc(Cl)cc2[nH]c2c(O)nn(C3CCSc4ccccc43)c(=O)c12` (racemic) [Ex. 1, (+/−)-7-chloro-4-hydroxy-2-(2H,3H,4H-Benzo[e]thian-4-yl)-1,2,5,10-tetrahydropyridazino[4,5-b]quinoline-1,10-dione] registered a Ki in data set [1] of 411 nM. In addition, in data set [2] (at the MED, versus vehicle-treated animals), the “Test C % Inh. (percent decrease of hyperalgesia at MED)” value worked out at 56%. Moreover, the “Test C MED (minimum effective dose)” value in data set [2] (dose giving statistically significant decrease in hyperalgesia) was determined as 30 mg/kg/day.
The molecule `O=c1c2ccc(Cl)cc2[nH]c2c(O)nn(C3CCCc4sccc43)c(=O)c12` (racemic) [Ex. 3, (+/−)-7-Chloro-4-hydroxy-2-(4,5,6,7-tetrahydrobenzo[b]thien-4-yl)-1,2,5,10-tetrahydropyridazino[4,5-b]quinoline-1.10-dione] showed a melting point of over 300 °C. In data set [1], the affinity, expressed as Ki, was 514 nM.

(Values after patent US6833368B2, “1, 2, 5, 10-tetrahydropyridazino[4, 5-b]quinoline-1,10-diones and their use for the treatment of pain” (AstraZeneca AB, priority 2000, dated 2004).)
